Assay results from ChEMBL document CHEMBL3217725, “Peptidomimetic nitriles as selective inhibitors for the malarial cysteine protease falcipain-2” (Medchemcomm, 2011).
pKi: −log10 of the molar value. Calls of active or inactive are those of the source. The rule behind the calls is not given here. Where a SMILES comes first, the peptide text is derived from it. [ ]: non-standard residue; d: D form. The star is where a group is joined. Ac6c = NC1(C(=O)O)CCCCC1; Cbz = O=C(OCc1ccccc1)*

Columns and labels:
Procathepsin L [1] = target: T1, Procathepsin L (Homo sapiens, UniProt P07711); experiment: Inhibition of human cathepsin L at 20 uM relative to control
Target sequence in this assay (P07711 114-333 limits assumed): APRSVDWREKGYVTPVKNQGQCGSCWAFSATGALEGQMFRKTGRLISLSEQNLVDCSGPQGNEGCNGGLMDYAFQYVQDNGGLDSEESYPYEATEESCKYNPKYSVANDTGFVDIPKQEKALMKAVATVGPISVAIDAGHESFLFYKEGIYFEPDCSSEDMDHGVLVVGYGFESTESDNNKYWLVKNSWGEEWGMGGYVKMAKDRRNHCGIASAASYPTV

Procathepsin L [2] = target: T1, Procathepsin L; experiment: Inhibition of human cathepsin L
Target sequence in this assay (P07711 whole entry): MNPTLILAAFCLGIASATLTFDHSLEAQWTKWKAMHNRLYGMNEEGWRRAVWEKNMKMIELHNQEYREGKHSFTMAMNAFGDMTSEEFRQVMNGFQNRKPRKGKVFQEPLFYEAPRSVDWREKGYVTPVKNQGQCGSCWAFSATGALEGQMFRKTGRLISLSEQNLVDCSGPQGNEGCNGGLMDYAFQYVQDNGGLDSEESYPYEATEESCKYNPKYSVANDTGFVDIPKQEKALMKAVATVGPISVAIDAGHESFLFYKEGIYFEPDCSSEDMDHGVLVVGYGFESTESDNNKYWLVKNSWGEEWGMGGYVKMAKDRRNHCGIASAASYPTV

Cathepsin B [3] = target: T2, Cathepsin B (Homo sapiens, UniProt P07858); experiment: Inhibition of human cathepsin B at 20 uM relative to control
Plasmodium falciparum = experiment: Inhibition of Plasmodium falciparum recombinant falcipain 2 using Cbz-Leu-Arg-AMC as substrate at 20 uM after 10 mins by fluorescence spectrophotometric analysis relative to control
[4] = Inhibition of Plasmodium falciparum recombinant falcipain 2 using Cbz-Leu-Arg-AMC as substrate after 10 mins by fluorescence spectrophotometric analysis
Homo sapiens = species: Homo sapiens; experiment: Inhibition of human alpha-chymotrypsin using Suc-Leu-Tyr-AMC as substrate assessed as residual activity after 10 mins by Dixon plot analysis
Cathepsin B [5] = target: T2, Cathepsin B; experiment: Inhibition of human cathepsin B

Row | inhibition (Procathepsin L [1]) | pKi (Procathepsin L [2]) | inhibition (Cathepsin B [3]) | inhibition (Plasmodium falciparum) | Activity (Homo sapiens) | pKi (Cathepsin B [5]) | Structure (SMILES) | pKi [4]
1 | < 35% | 4.58 | < 35% | < 35% | inactive | – | N#CCNC(=O)C1(NC(=O)OCc2ccccc2)CCCCC1 | 5.92
2 | < 35% | – | < 35% | < 35% | inactive | – | COc1ccc(CCC(=O)NC2(C(=O)NCC#N)CCCCC2)cc1 | 5.05
3 | < 35% | – | < 35% | < 35% | inactive | – | COc1ccc(CCC(=O)NC2(C(=O)NCC#N)CCCCC2)cc1OC | 5.14
4 | < 35% | – | < 35% | < 35% | inactive | – | N#CCNC(=O)C1(NC(=O)CCc2cccs2)CCCCC1 | 5.06
5 | < 35% | 6.09 | < 35% | < 35% | inactive | 5.87 | O=CCNC(=O)C1(NC(=O)OCc2ccccc2)CCCCC1 (Cbz-[Ac6c]-Gly-aldehyde) | 7.19
6 | < 35% | – | < 35% | < 35% | inactive | – | CC(C)(NC(=O)OCc1ccccc1)C(=O)NCC#N | –
7 | < 35% | 4.88 | < 35% | < 35% | inactive | 5.30 | N#CCNC(=O)C1(NC(=O)[C@H]2C[C@@H]2c2ccccc2)CCCCC1 (racemic) | 5.68
8 | < 35% | – | < 35% | < 35% | inactive | – | N#CCNC(=O)C1(NC(=O)C2CCCC2)CCCCC1 | 5.12
9 | < 35% | – | < 35% | < 35% | inactive | – | N#CCNC(=O)C1(NC(=O)CCc2ccco2)CCCCC1 | 4.76
10 | < 35% | – | < 35% | < 35% | inactive | – | N#CCNC(=O)C1(NC(=O)CCc2cccnc2)CCCCC1 | 5.03
11 | < 35% | – | < 35% | < 35% | inactive | – | N#C[C@@H]1CCCN1C(=O)C1(NC(=O)OCc2ccccc2)CCCCC1 | –
12 | < 35% | 4.53 | < 35% | < 35% | inactive | 4.60 | N#CCNC(=O)C1(NC(=O)CCC2CCCC2)CCCCC1 | 5.09
13 | < 35% | 4.60 | < 35% | < 35% | inactive | – | COc1ccccc1CCC(=O)NC1(C(=O)NCC#N)CCCCC1 | 5.28
